Results from patent US10457709B2, “Antimicrobial peptides, their variants and uses” (priority 2015, dated 2019).
Square brackets hold non-standard residues; d marks the D form. Peptide text beside a SMILES is read from it.

Assays:
[1] = system: MRSA strains (S. aureus COL); experiment: MIC, synergistic activity with Ertapenem (4 μg/ml); assay type: cell-based, Staphylococcus aureus; conditions: S. aureus COL, synergistic activity with 4 μg/ml Ertapenem
Experimental: (§1) Minimum inhibition concentrations (MICs) were determined against Escherichia coli (ATCC 25922), Staphylococcus aureus (ATCC 25923), Klebsiella pneumoniae (ATCC 10031) and Pseudomonas aeruginosa (ATCC 27853). Also clinical strains of E. coli, K. pneumoniae, E. cloacae, P. aeruginosa, Serratia marcescens, Proteus mirabilis, S. pneumoniae, Acinetobacter baumannii, A. johnsonii and S. aureus were used for MICs assays. Additionally, clinical strains of yeast including Candida albicans, C. glabrata, C. parapsilosis and C. quillermondiae were used. The susceptibility of these microorganisms to Chain peptides were determined using micro broth dilution assay. Colonies of the respective microorganism from Muller Hinton (MH) agar plates incubated overnight were suspended in MH broth media and final concentration of microorganism was adjusted to 5.0×10^5 cfu/ml. An aliquot of 10 μl of each Chain peptide, or gentamicin, tetracycline as reference antibiotics were added in differing concentrations along with 90 μl of bacterial suspension to 96 well polypropylene plates and incubated at 37° C. for 20 to 24 hours. Concentrations of Chain peptides and reference antibiotics ranged from 0.125 to 128 μg/ml and the MICs were recorded as the lowest concentration with no visual growth of bacteria. Similarly, antifungal MICs were tested in Potato dextrose broth.
(§2) Peptides Chain 104, Chain 105, Chain 201, Chain 308, Chain 310 were tested against antibiotic-sensitive strains of S. aureus RN4220 and methicillin resistant strains of S. aureus COL (MRSA). Chain peptides comprising of either L- or D-form amino acids were tested against these bacteria, and the D-form peptides were found have better activity compared to L-form (Table 6). Synergistic activity of chain peptides along with Ertapenem (4 μg/ml) was tested to know whether it will influence the activity against MRSA strains. […] Chain 310 has the best antibacterial activity against the MRSA strains with a MIC of 0.06 & 0.03 μg/ml along with Ertapenem (4 μg/ml) for both forms of L and D-peptides (Table 6).

S. aureus COL (MRSA) = assay type: cell-based, Staphylococcus aureus
Experimental: as §1, §2

S. aureus RN4220 = assay type: cell-based, Staphylococcus aureus; conditions: antibiotic sensitive strain S. aureus RN4220
Experimental: as §1, §2

[2] = system: C. parapsilosis clinical strains; experiment: MIC, clinical yeast strains; assay type: cell-based, Candida parapsilosis; set-up: unit: µg/ml
Experimental: as §1
(§3) Clinical strains of yeasts including Candida albicans, C. glabrata, C. parapsilosis and C. quillermondiae were also tested with the 12 Chain peptides. The minimum inhibitory concentration (MICs) varied between these peptides and are presented in Tables 4a, 4b, 4c and 5a, 5b, 5c. Peptides Chain 105, 201 and 308 are broad spectrum antimicrobials with MICs between 0.5-32 μg/ml against all the bacteria and yeasts tested, except Serratia marcescens and Proteus mirabilis, against which the MICs were between 64-128 μg/ml. Peptide Chain 306 has narrow spectrum activity against E. coli at 1 μg/ml and for the rest of the bacterial strains at >32 μg/ml (FIG. 10c).

[3] = system: Candida albicans clinical strains; experiment: MIC, clinical yeast strains; assay type: cell-based; set-up: unit: μg/ml
Experimental: as §1, §3

[4] = system: C. quillermondiae clinical strains; experiment: MIC, clinical yeast strains; assay type: cell-based, Candida quillermondiae; set-up: unit: μg/ml; conditions: C. quillermondiae clinical yeast strain 1
Experimental: as §1, §3

[5] = system: C. glabrata clinical strains; experiment: MIC, clinical yeast strains; assay type: cell-based, Candida glabrata; set-up: unit: µg/ml
Experimental: as §1, §3

[6] = system: Proteus mirabilis clinical strains; assay type: cell-based; conditions: clinical strains
Experimental: as §1, §3

[7] = system: Streptococcus pneumoniae clinical strains; assay type: cell-based; conditions: clinical strains
Experimental: as §1, §3

[8] = system: Enterobacter cloacae clinical strains; assay type: cell-based; conditions: clinical strains
Experimental: as §1, §3

[9] = system: Staphylococcus aureus clinical strains; assay type: cell-based; conditions: clinical strains
Experimental: as §1, §3

[10] = system: Serratia marcescens clinical strains; assay type: cell-based; conditions: clinical strains
Experimental: as §1, §3

[11] = system: Pseudomonas aeruginosa clinical strains; assay type: cell-based; conditions: clinical strains
Experimental: as §1, §3

[12] = system: Escherichia coli clinical strains; assay type: cell-based; conditions: clinical strains
Experimental: as §1, §3

[13] = system: Klebsiella pneumoniae clinical strains; assay type: cell-based; conditions: clinical strains
Experimental: as §1, §3

[14] = C. parapsilosis clinical yeast strain 1
[15] = C. parapsilosis clinical yeast strain 2
[16] = C. parapsilosis clinical yeast strain 3
[17] = C. parapsilosis clinical yeast strain 4
[18] = Candida albicans clinical yeast strain 1
[19] = Candida albicans clinical yeast strain 2
[20] = Candida albicans clinical yeast strain 3
[21] = Candida albicans clinical yeast strain 4
[22] = Candida albicans clinical yeast strain 5
[23] = C. glabrata clinical yeast strain 1
[24] = C. glabrata clinical yeast strain 2
[25] = C. glabrata clinical yeast strain 3
[26] = C. glabrata clinical yeast strain 4

CC[C@@H](C)[C@@H](NC(=O)[C@@H](CCSC)NC(=O)[C@@H](C)NC(=O)[C@@H](CCCNC(=N)N)NC(=O)[C@@H](Cc1c[nH]c2ccccc12)NC(=O)[C@@H](CCCCN)NC(=O)[C@H](N)CCCNC(=N)N)C(=O)N[C@H](CCCNC(=N)N)C(=O)N[C@H](CC(C)C)C(=O)N[C@H](Cc1c[nH]cn1)C(=O)N[C@H](C)C(=O)N[C@H](CCCCN)C(=O)N[C@H](CCCNC(=N)N)C(=O)N[C@H](CC(C)C)C(=O)N[C@H](CCCNC(=N)N)C(=O)N[C@H](CCCCN)C(=O)O [104 D] (H-[dR][dK][dW][dR][dA][dM][dI][dR][dL][dH][dA][dK][dR][dL][dR][dK]-OH)
4 µg/mL: Minimum inhibitory concentration (MIC), S. aureus COL + 4 μg/ml Ertapenem [1]
64 µg/mL: Minimum inhibitory concentration (MIC), S. aureus RN4220 (S. aureus RN4220)
32 µg/mL: Minimum inhibitory concentration (MIC), S. aureus COL (MRSA) (S. aureus COL (MRSA))

CC[C@@H](C)[C@@H](NC(=O)[C@@H](CCSC)NC(=O)[C@@H](C)NC(=O)[C@@H](CCCNC(=N)N)NC(=O)[C@@H](Cc1c[nH]c2ccccc12)NC(=O)[C@@H](CCCCN)NC(=O)[C@H](N)CCCNC(=N)N)C(=O)N[C@H](CCCNC(=N)N)C(=O)N[C@H](CC(C)C)C(=O)N[C@H](Cc1c[nH]cn1)C(=O)N[C@H](C)C(=O)N[C@H](CCCCN)C(=O)N[C@H](Cc1c[nH]c2ccccc12)C(=O)N[C@H](CC(C)C)C(=O)N[C@H](CCCNC(=N)N)C(=O)N[C@H](CCCCN)C(=O)O [105 D] (H-[dR][dK][dW][dR][dA][dM][dI][dR][dL][dH][dA][dK][dW][dL][dR][dK]-OH)
2 µg/mL: Minimum inhibitory concentration (MIC), S. aureus COL + 4 μg/ml Ertapenem [1]
16 µg/mL: Minimum inhibitory concentration (MIC), S. aureus RN4220 (S. aureus RN4220)
8 µg/mL: Minimum inhibitory concentration (MIC), S. aureus COL (MRSA) (S. aureus COL (MRSA))

CC[C@@H](C)[C@@H](NC(=O)[C@@H](Cc1c[nH]c2ccccc12)NC(=O)[C@H](N)CCCCN)C(=O)N[C@@H](C(=O)N[C@H](Cc1c[nH]c2ccccc12)C(=O)N[C@H](CCCNC(=N)N)C(=O)N[C@H](Cc1c[nH]c2ccccc12)C(=O)N[C@H](CCCNC(=N)N)C(=O)N[C@H](Cc1ccccc1)C(=O)N[C@H](CCCCN)C(=O)N[C@H](CCCNC(=N)N)C(=O)O)C(C)C [201 D] (H-[dK][dW][dI][dV][dW][dR][dW][dR][dF][dK][dR]-OH)
2 µg/mL: Minimum inhibitory concentration (MIC), S. aureus COL (MRSA) (S. aureus COL (MRSA)) | Minimum inhibitory concentration (MIC), S. aureus RN4220 (S. aureus RN4220)
1 µg/mL: Minimum inhibitory concentration (MIC), S. aureus COL + 4 μg/ml Ertapenem [1]

C[C@@H]1[C@H](O)[C@@H](C)/C=C/C=C/C=C/C=C/C=C/C=C/C=C/[C@H](O[C@@H]2O[C@H](C)[C@@H](O)[C@H](N)[C@@H]2O)C[C@@H]2O[C@](O)(C[C@@H](O)C[C@@H](O)[C@H](O)CC[C@@H](O)C[C@@H](O)CC(=O)O[C@H]1C)C[C@H](O)[C@H]2C(=O)O [Amphotericin B]
0.5: Minimum inhibitory concentration [3, 19]
2: Minimum inhibitory concentration [2, 14] | Minimum inhibitory concentration [2, 15] | Minimum inhibitory concentration [2, 16] | Minimum inhibitory concentration [2, 17] | Minimum inhibitory concentration [3, 18] | Minimum inhibitory concentration [3, 20] | Minimum inhibitory concentration [3, 21] | Minimum inhibitory concentration [3, 22] | Minimum inhibitory concentration [4] | Minimum inhibitory concentration [5, 25]
4: Minimum inhibitory concentration [5, 23] | Minimum inhibitory concentration [5, 24] | Minimum inhibitory concentration [5, 26]

CC(C)C[C@@H](NC(=O)[C@@H](CCCCN)NC(=O)[C@@H](Cc1c[nH]c2ccccc12)NC(=O)[C@@H](CCCCN)NC(=O)[C@@H](C)NC(=O)[C@@H](Cc1c[nH]cn1)NC(=O)[C@@H](CC(C)C)NC(=O)[C@@H](CCCNC(=N)N)NC(=O)[C@@H](Cc1c[nH]c2ccccc12)NC(=O)[C@H](N)Cc1c[nH]c2ccccc12)C(=O)N[C@H](Cc1c[nH]c2ccccc12)C(=O)O [Chain109D] (H-[dW][dW][dR][dL][dH][dA][dK][dW][dK][dL][dW]-OH)
16: Minimum inhibitory concentration [5, 25]
8 µg/mL: MIC, Streptococcus pneumoniae strain 2 [7] | MIC, Streptococcus pneumoniae strain 4 [7] | MIC, Streptococcus pneumoniae strain 5 [7] | MIC, Enterobacter cloacae strain 2 [8] | MIC, Enterobacter cloacae strain 3 [8] | MIC, Enterobacter cloacae strain 4 [8] | MIC, Pseudomonas aeruginosa strain 5 [11] | MIC, Klebsiella pneumoniae strain 2 [13] | MIC, Klebsiella pneumoniae strain 3 [13] | MIC, Klebsiella pneumoniae strain 5 [13]
128: Minimum inhibitory concentration [2, 14] | Minimum inhibitory concentration [2, 15] | Minimum inhibitory concentration [2, 16] | Minimum inhibitory concentration [3, 18] | Minimum inhibitory concentration [3, 19] | Minimum inhibitory concentration [3, 20] | Minimum inhibitory concentration [3, 21] | Minimum inhibitory concentration [3, 22] | Minimum inhibitory concentration [4] | Minimum inhibitory concentration [5, 23] | Minimum inhibitory concentration [5, 24]
64: Minimum inhibitory concentration [5, 26]
8: Minimum inhibitory concentration [2, 17]
64 µg/mL: MIC, Proteus mirabilis strain 2 [6] | MIC, Proteus mirabilis strain 3 [6] | MIC, Serratia marcescens strain 5 [10]
4 µg/mL: MIC, Enterobacter cloacae strain 1 [8] | MIC, Enterobacter cloacae strain 5 [8] | MIC, Staphylococcus aureus strain 2 [9] | MIC, Escherichia coli strain 2 [12] | MIC, Escherichia coli strain 3 [12] | MIC, Escherichia coli strain 4 [12] | MIC, Escherichia coli strain 5 [12]
16 µg/mL: MIC, Streptococcus pneumoniae strain 1 [7] | MIC, Pseudomonas aeruginosa strain 1 [11] | MIC, Pseudomonas aeruginosa strain 2 [11] | MIC, Pseudomonas aeruginosa strain 3 [11] | MIC, Pseudomonas aeruginosa strain 4 [11] | MIC, Escherichia coli strain 1 [12] | MIC, Klebsiella pneumoniae strain 1 [13] | MIC, Klebsiella pneumoniae strain 4 [13]
2 µg/mL: MIC, Streptococcus pneumoniae strain 3 [7] | MIC, Staphylococcus aureus strain 1 [9] | MIC, Staphylococcus aureus strain 3 [9] | MIC, Staphylococcus aureus strain 4 [9] | MIC, Staphylococcus aureus strain 5 [9]
>128 µg/mL: MIC, Proteus mirabilis strain 1 [6] | MIC, Proteus mirabilis strain 4 [6] | MIC, Proteus mirabilis strain 5 [6] | MIC, Serratia marcescens strain 1 [10] | MIC, Serratia marcescens strain 2 [10] | MIC, Serratia marcescens strain 3 [10] | MIC, Serratia marcescens strain 4 [10]
